This is an account of results in patent US20030232790A1, “Dihydro-2h-napthalene-1-one inhibitors of ras farnesyl transferase” (priority 2002, published 2003).

Each structure is given as a SMILES string. Where two headings read alike, the source gives them in different places.

Experiment [1] addresses T1, protein:farnesyl transferase (PFT), SF9 affinity purified rat FPT (Rattus norvegicus, UniProt Q02293+Q04631).
T1 construct: made in house
The experiment is described as follows: PFT (FPT) inhibitory activity, radiolabeled farnesyl pyrophosphate / biotinyl peptide streptavidin bead assay. The format is biochemical. The protocol: The pharmaceutical utility of compounds of this invention was established by the following standard assay which measures inhibition of the enzyme protein:farnesyl transferase (PFT), also referred to as farnesyl protein transferase (FPT).
The PFT (or FPT) inhibitory activity of compounds of the present invention was assayed in HEPES buffer (pH 7.4) containing 5 mM potassium phosphate and 20 μM ZnCl2. The solution also contained 5 mM DTT (dithiothreitol), 5 mM MgCl2, and 0.1% PEG 8000. Assays were performed in 96 well plates (Wallec) and employed solutions composed of varying concentrations of a compound of the present invention in 10% DMSO (dimethylsulfoxide). Upon addition of both substrates, radiolabeled farnesyl pyrophosphate ([1^3H], specific activity 15-30 Ci/mmol, final concentration 134 nM) and (biotinyl)-Ahe-Thr-Lys-Cys-Val-Ile-Met ([3aS[3a alpha, 4 beta, 6a alpha]-hexahydro-2-oxo-1H-thieno[3,4-d]imidazole-5-pentanoic acid]-[7-aminoheptanoic acid]-Thr-Lys-Cys-Val-Ile-Met) (Ahe is 7-aminoheptanoic acid, Thr is threonine, Lys is lysine, Cys is cysteine, Val is valine, Ile is isoleucine, and Met is methionine) (final concentration 0.2 μM), the enzyme reaction was started by addition of SF9 affinity purified rat FPT. After incubation at 30° C. for 30 minutes, the reaction was terminated by diluting the mixture 2.5-fold with a stop buffer containing 1.5 M magnesium acetate, 0.2 M H3PO4, 0.5% BSA (bovine serum albumin), and strepavidin beads (Amersham) at a concentration of 1.3 mg/mL. After allowing the plate to settle for 30 minutes at room temperature, radioactivity was quantitated on a microBeta counter (Model 1450, Wallec). The assay was also carried out without 5 mM potassium phosphate.

Experiment [2] deals with EJ-1 human bladder carcinoma, HT18O human fibrosarcoma, and human colon carcinoma xenografts. To be noted: 100 mg/kg; xenografts in nude mice; cited from earlier work.
Experiment [3] deals with human lung carcinoma with K-ras mutation and p53 deletion. To be noted: nude mice; cited from earlier work.
Experiment [4] deals with mammary and salivary carcinomas. To be noted: daily administration; ras transgenic mice; cited from earlier work.
Setting [5] is: HEPES buffer pH 7.4 with 5 mM potassium phosphate, read-out: IC50 (μm) Hepes ± 5 mM Phosphate.
Setting [6] is: HEPES buffer pH 7.4 without 5 mM potassium phosphate, read-out: IC50 (μm) Hepes.

On to `CCCc1c(OCCc2cncn2Cc2ccccc2)ccc2c1CCCC2=O` [Compound 2, 6-[2-(3-benzyl-3H-imidazol-4-yl)-ethoxy]-5-propyl-3,4-dihydro-2H-naphthalen-1-one], for which the IC50 (commonly the point on the concentration scale where inhibition reaches its midpoint) in experiment [1] (setting [5]) stood at 870 nM; in experiment [1] (setting [6]), 1390 nM.
For `O=C1CCCc2c1ccc(OCCc1cncn1Cc1ccccc1)c2CCc1ccccc1` [Compound 3, 6-[2-(3-benzyl-3H-imidazol-4-yl)-ethoxy]-5-phenethyl-3,4-dihydro-2H-naphthalen-1-one] the same measures were 52 nM and 73 nM.
Take `N#Cc1ccc(Cn2cncc2CCOc2ccc3c(c2CCc2ccccc2)CCCC3=O)cc1` [Compound 4, 4-{[5-(2-{[5-oxo-1-(2-phenylethyl)-5,6,7,8-tetrahydro-2-naphthalenyl]oxy}ethyl)-1H-imidazol-1-yl]methyl}benzonitrile]: in experiment [1] (setting [6]), the IC50 was 0.3 nM.
On to `COc1ccc(Cn2cncc2CCOc2ccc3c(c2)CCCC3=O)cc1C` [Compound 12, 6-{2-[3-(4-methoxy-3-methyl-benzyl)-3H-imidazol-4-yl]-ethoxy}-3,4-dihydro-2H-naphthalen-1-one], for which the IC50 turned out to be 22 nM in experiment [1] (setting [5]) and 24 nM in experiment [1] (setting [6]).
Consider `N#Cc1ccc(Cn2cncc2CCOc2ccc3c(c2CS(=O)(=O)c2ccccn2)CCCC3=O)cc1` [Compound 28, 4-({5-[2-({5-oxo-1-[(2-pyridinylsulfonyl)methyl]-5,6,7,8-tetrahydro-2-naphthalenyl}oxy)ethyl]-1H-imidazol-1-yl}methyl)benzonitrile], for which the concentration for half-maximal inhibition (IC50) in experiment [1] (setting [6]) was 0.3 nM.
The same measure, in the same setting: the same measure for `CC(C)S(=O)(=O)Cc1c(OCCc2cncn2Cc2ccc(C#N)cc2)ccc2c1CCCC2=O` [Compound 29, 4-({5-[2-({1-[(isopropylsulfonyl)methyl]-5-oxo-5,6,7,8-tetrahydro-2-naphthalenyl}oxy)ethyl]-1H-imidazol-1-yl}methyl)benzonitrile]: 0.5 nM.
For the compound `COC(=O)[C@H](CCSC)NC(=O)[C@H](/C=C\[C@@H](/C=C/[C@@H](N)CS)C(C)C)Cc1ccccc1` [Compound B1086], the tumor growth inhibition entry in experiment [2] is on record as “inhibit tumor growth”.
Take `CSCC[C@H](NC(=O)c1ccc(NC[C@@H](N)CS)cc1-c1ccccc1)C(=O)O` [FTI276]: in experiment [3], the tumor growth result is given as “selectively block tumor growth”.
Regarding `CC[C@H](C)[C@@H](CO[C@@H](Cc1ccccc1)C(=O)N[C@@H](CCS(C)(=O)=O)C(=O)OC(C)C)NC[C@@H](N)CS` [L-744,832], the tumor regression result in experiment [4] was “caused tumor regression”.
